The values below come from patent publication US20070207230A1, “EXTRACT OF NELUMBINIS SEMEN FOR THE TREATMENT OF DEPRESSION, MEDICINAL COMPOSITE AND HEALTH FOODS INCLUDING THE EXTRACT OF NELUMBINIS SEMEN” (PURIMED CO., LTD., priority 2004, published 2007).

One data set concerns rat hippocampus proteins. The data set is described as follows: 2-DE analysis of hippocampus proteins of CMS rats. The following applies: drug last four weeks, compared to control group.
Data set [1] concerns male Wistar white rats exposed to CMS. The data set is described as follows: Open field activity after CMS. Format: in vivo, rat. The following applies: 8-week CMS, drug for the last four weeks; average. An excerpt: The open field consisted of a wooden box of 75×75×30 cm, the floor of which was divided by width and length lines into 15 cm squares. The open field was connected to a small box of 15×15×15 cm, which was used as a start box where experimental animals waited to enter the open field. A vertical sliding door was installed between the start box and the open field. White rats were placed in the start box, and, after 30 sec, the sliding door was open. The time to leave the start box toward the open field, which was expressed as start latency, was recorded. The start latency time means the time ranging from when the door was opened to when the rat tails completely exited the start box. […] The following behaviors were recorded for a total of 10 min: locomotion, rearing, grooming and defecation. Grooming behavior was recorded as the total time spent grooming in 10 min, and the remaining behaviors were all recorded as frequencies. Locomotor activity was recorded by counting the number of squares each white rat crossed on the floor divided into 25 15×15-cm squares using a computer tracking system. […] Grooming was recorded as the number of times each rat stroked its head or combed its fur with its forepaws during 10 min. After the 10-min observation, the white rats were removed from the open field, and defecation frequency was recorded by counting fecal boluses on the floor of the open field.

A further data set concerns Sprague-Dawley male rats. The data set can be described thus: Forced swim test, immobility time. As to conditions: 5 min forced swim the day after. Format: in vivo, rat. As for the experimental part: During forced swimming, the immobility time, when a rat ceases struggling and remains floating motionless in the water, was measured. The forced swimming itself induces depression in rats. Rats in water baths struggle first, and then stop struggling and remain floating motionless in the water. At the immobile state, rats become desperate and almost come to give up their lives. This time is considered to be the situation when depression is induced.
The antidepressive effects of drugs are assessed using this principle. Before being administered with drugs, experimental animals (rats) are dropped into water baths and forced to swim for 15 minutes to be trained to adapt to a suddenly changed environment without fear.
A comparative group was orally administered with a Hypericum perforatum extract. Another comparative group was intraperitoneally administered with fluoxetine. Each drug was administered for one day or six days.
Before the drug administration, the white rats were dropped into a cylindrical water bath (20 cm in diameter; 40 cm water depth) and forced to swim for 15 min. The day after the drug administration for one day or six days, the rats were forced to swim for 5 min, and during this forced swimming, immobility time was measured.

The subject of another data set is male rats exposed to CMS. The data set can be described thus: Sexual (mating) behavior after CMS. Format: in vivo, rat. The following applies: drug last four weeks. As for the experimental part: A decrease in sucrose consumption (the core symptom of depression) in rats was confirmed during the 8-week CMS period, and antidepressants were administered for the last four weeks. Then, mating behavior of rats was observed. This test was carried out a dark and quiet room using a 16×16-inch transparent acrylic box. Mature female rats were ovariectomized, and, to induce sexual receptivity, were administered with 20 μg of estradiol benzoate 48 hrs before the test and 1 mg of progesterone 5 hrs before the test. Male rats were singly housed in the same box for 30 min to adapt to a new environment. […] When female rats have sexual receptivity, that is, are estrous, they allow male rats to mount and show lordosis. Sexual behaviors of male rats were divided into mounting, intromission and ejaculation, and frequency of each behavior was recorded. The number of ejaculation (higher frequency generally means higher sexual activity) was recorded for 30 min. The time taken after ejaculation before resumption of sexual activity was called “post-ejaculation interval (PEI)”. A decrease in PEI generally means that male rats have increased sexual activity.

Data set [2] can be described thus: Body weight in the CMS model of depression. Format: in vivo, rat. The following applies: after 8-week CMS, drug for the last four weeks; versus CMS control group. An excerpt: The rats were first trained to experience and drink a 1% sucrose solution for 48 hrs to be adapted to sweetness. After three days, the test groups were exposed to CMS (chronic mild stress) for a total of eight weeks. The CMS procedure applied to the test groups was based on the procedure originally designed by Willner et al. (1987). The rats were sequentially exposed to a variety of mild stressors, and a series of stressors was suitably divided over one week and applied to rats according to a predetermined time schedule. This procedure was repeated for eight weeks. […] The control rats were weekly exposed only to food and water deprivation for 20 hrs before sucrose intake was measured, and were normally bred in single cages for the rest of the time with sufficient water and food supply. […] Intake of a 1% sucrose solution was measured once every week in each of the four groups. […] Sucrose preference was expressed as a ratio of sucrose intake to total water and sucrose intake. […] In each group, sucrose intake was monitored from the beginning of CMS and for the CMS period of eight weeks. Body weight was measured before the 20-h water and food deprivation performed to measure sucrose intake every week.

The test system of another data set is 5-HT1A receptor. The data set is described as follows: [3H]-8-OH-DPAT receptor binding autoradiography on brain sections of CMS rats. Format: in vivo, rat. As for the experimental part: Secondarily, antidepressive effects were evaluated by an increase or decrease in receptor binding of a serotonin 1A receptor agonist, [^3H]-8-OH-DPAT, in the rat prefrontal cortex, hippocampus and hypothalamus, which play important roles in depression, as follows. […] Whole brains were excised from the rats and rapidly frozen in dry ice. The rapidly frozen brains were stored at −70° C. until sectioned. The brains were cryo-sectioned into a size of 20 ? at −20° C. using a cryostat microtome (Leika), and each section was attached onto a gelatin-coated slide (Superfrost/Plus, Fisher Scientific). The slides were stored at −70° C. until use for observing changes in 5-HT1A receptor levels or activity. The changes in 5-HT1A receptor were examined using a radioisotope, [^3H]-8-OH-DPAT. The slides were taken out from a −70° C. freezer where the slides had been stored, and were pre-incubated in Tris-HCl buffer (170 mM Tris, 4 mM CaCl2, pH 7.6) for 30 min at room temperature. Then, the slides were incubated in Tris-HCl buffer containing 2 nM [^3H]-8-OH-DPAT (Amersham) for one hour. This incubation is total binding for observing the changes in the whole 5-HT1A receptor, and non-specific binding was observed using Tris-HCl buffer containing 1 μM 5-HT (Sigma). Then, the slides were washed with Tris-HCl buffer precooled at 4° C. six times and dried with chilled air. The slides were completely dried in a desiccator for 24 hours. The completely dried slides are exposed to Hyperfilm along with a standard scale bar for five weeks. The film exposed for five weeks was developed using a developer and a fixer. For quantitative analysis of density, the film was scanned using an image analysis program, ImageQuant (Molecular dynamics).
The changes in 5-HT1A receptor levels or activity were examined using a radioisotope, [^3H]-8-OH-DPAT. Reduced levels or inactivation of 5-HT1A receptor occur in the prefrontal cortex, hippocampus and hypothalamus of depressed patients. […] This normalization of 5-HT1A receptor by antidepressant administration is effective in treating depression and depression-associated neurodegeneration. Based on this fact, an increase in 5-HT1A receptor levels can be assessed by a receptor binding assay using a 5-HT1A receptor […]. When an increase in 5-HT1A receptor levels is observed upon Nelumbinis Semen administration in comparison with a control group exposed to CMS, this is considered an in vivo indication of an antidepressive effect at the molecular level. After drugs were administered for the last four weeks of the 8-week CMS period, an increase in 5-HT1A receptor levels, as an in vivo indication of antidepressive effect, was found in animals administered with the Nelumbinis Semen extract.

Data set [3] relates to male Wistar white rats exposed to CMS. The data set can be described thus: Sucrose intake in the CMS model of depression. As to conditions: 8-week CMS, drug for the last four weeks. Format: in vivo, rat. An excerpt: Postnatal 6-week-old male Wistar white rats weighing 180-200 g were divided into test groups and a control group. The rats were first trained to experience and drink a 1% sucrose solution for 48 hrs to be adapted to sweetness. After three days, the test groups were exposed to CMS (chronic mild stress) for a total of eight weeks. The CMS procedure applied to the test groups was based on the procedure originally designed by Willner et al. (1987). The rats were sequentially exposed to a variety of mild stressors, and a series of stressors was suitably divided over one week and applied to rats according to a predetermined time schedule. This procedure was repeated for eight weeks.
The stress procedure is given in Table 1, below, which describes a weekly CMS regime (20-h food and water deprivation, prey limitation after the food and water deprivation (45 g powdered prey sprinkled), exposure to empty water bottles after the food and water deprivation, all day illumination, 30° cage tilt; soiled cage (400 ml of water spilled on bedding), presentation of intermittent 85-dB white noise, presentation of flashes of light with a stroboscope, and tripled housing). The control rats were weekly exposed only to food and water deprivation for 20 hrs before sucrose intake was measured, and were normally bred in single cages for the rest of the time with sufficient water and food supply. […]

Text for rat hippocampus proteins: Thirdly, an increase in marker proteins of antidepression, which play important roles in depression, was examined in the rat hippocampus by 2-DE, as follows. Rats were exposed to CMS for eight weeks and administered with drugs for the last four weeks of a test period. The hippocampus was excised from the rats, suspended with a sonicator and centrifuged, and the supernatants were recovered. Each sample was mixed with an IEF sample buffer and loaded onto an IEF gel. Proteins were separated according to isoelectric point by isoelectric focusing (IEF) in the first dimension and according to molecular weight by SDS-PAGE at 100-200 V for about 1-2 hours in the second dimension. The gel was stained by a Gel-Code Blue staining method and evaluated for elevated or newly emerged proteins by the antidepressive substances. The elevated or newly emerged proteins by the antidepressive substances were subjected to mass spectrometry.
Protein samples from the rat hippocampus were loaded onto an IEF gel. Proteins were separated according to isoelectric point by isoelectric focusing (IEF) in the first dimension and according to molecular weight by SDS-PAGE in the second dimension.

On to `CNCCC(Oc1ccc(C(F)(F)F)cc1)c1ccccc1` (stereo not drawn) [fluoxetine], for which the “protein spots in 2-DE of hippocampus” value in the data set on rat hippocampus proteins was “decrease in spots 1 and 4”. Also, in data set [1], the “visit counts in open field” value is 60 places in 10 min. Besides, the “decrease in immobility time in comparison with a control group” value in the data set on Sprague-Dawley male rats (one-day drug administration) worked out at 9.3%; in the data set with Sprague-Dawley male rats (six-day drug administration), 22.1%. Besides, the “post-ejaculation interval (PEI)” value in the data set on male rats exposed to CMS (compared to control animals exposed to CMS) is “no significant difference”. Further, in the data set with male rats exposed to CMS (compared to normal animals), the “sexual behavior (ejaculation frequency in 30 min)” value is listed as “remarkably reduced”. Moreover, the body weight result in data set [2] is “greater weight loss than the control group”. Besides, the 5-HT1A receptor levels entry is recorded as “decrease” in the data set on 5-HT1A receptor (CA2 region of the rat hippocampus); “increase” in the data set with 5-HT1A receptor (rat hippocampus and hypothalamus, compared to CMS control group). The “decrease in 5-HT1A receptor levels” value with 5-HT1A receptor (CA3 region of the rat hippocampus) is recorded as 2%; in the data set with 5-HT1A receptor (layer I-II of the rat cerebral frontal cortex, compared to the NS group, P<0.05) it was 46%. Besides, the sucrose consumption entry in data set [3] was “restored to levels similar to the normal group”.
